From patent publication US12662509B2, “Inhibitors of 17β-HSD7 and uses thereof” (UNIVERSITÉ LAVAL, priority 2021, dated 2026)

Legend:
[1] = test system: human MCF-7 breast tumors; assay: MCF-7 xenograft tumor growth in OVX nude mice; type: in vivo; details: for growth of human MCF-7 breast tumors, % of initial growth: OVX nude mice, INH7 groups 5 mg/kg/day + E1 0.1 μg/mice/day, E1, E2 groups 0.1 μg/mice/day
Description: FIG. 4—is an illustration of the effect of various inhibitors of 17 β-HSD1 (INH7-10 and INH7-464) on the growth of human MCF-7 breast tumors in nude mice over a period of 22 days; illustration of the regression of MCF-7 xenograft tumor growth in OVX nude mice (cf. Table 1). The growth regression curves represent the decrease in tumor volume in response to INH7 (INH7-10 and INH7-464) treatment (Groups 4 and 5). […] Tumor volume=0.52×(length×width^2). Statistical significance by one-way ANOVA assay is shown by **P<0.01.
(§1) Female athymic nude mice (4 weeks) were ovariectomized under isoflurane-induced anesthesia. One week after ovariectomy (OVX), 5×10^6 MCF-7 cells or 10×10^6 T47D cells suspended in a […] mixture of Matrigel (BD)/culture medium (50:50) were administered by s.c. injection on both side of each mice. All mice were supplemented by daily s.c. injection 0.1 μg Estradiol (E2) for 5 weeks. […] The animals were euthanized on day 23, followed by the collection of tumor specimens and blood samples. The estrogen-sensitive organs (uterus and vagina), liver and kidney were removed and excised of fat and weighed. Tumor specimens were photographed and weighed.

[2] = test system: human T47D breast tumors; assay: T47D xenograft tumor growth in OVX nude mice; type: in vivo; details: for growth of human T47D breast tumors, % of initial growth: OVX nude mice, INH7 groups 5 mg/kg/day + E1 0.1 μg/mice/day, E1, E2 groups 0.1 μg/mice/day
Description: FIG. 5—is an illustration of the effect of various inhibitors of 17 β-HSD1 (INH7-10 and INH7-464) on the growth of human T47D breast tumors in nude mice over a period of 22 days; illustration of the regression of T47D xenograft tumor growth in OVX nude mice by (cf. Table 2). The growth regression curves represent the decrease in tumor volume in response to INH7 (INH7-10 and INH7-464) treatment (Groups 4 and 5). […] Statistical significance by one-way ANOVA assay is shown by **P<0.01.
as §1

[3] = test system: MCF-7 cell proliferation; assay: Effect of INH7 inhibitors on MCF-7 cell proliferation (DNA synthesis, 144 hours, E1 0.1 nM); type: cell-based, human; details: 2 μM
Experimental: FIG. 1—is an illustration of the effect of various inhibitors of […] (INH7-10, INH7-81 and INH7-464) on MCF-7 cell proliferation over a period of 144 hours.
The effects of various inhibitors, including INH7-464, on MCF-7 cell proliferation over a period of 144 hours is illustrated in FIG. 1. The hormone source E1 (Estrone) was provided at 0.1 nM. Data are reported as % of DNA synthesis vs Control (0.1 nM E1) (100%). Quadruple wells were used for each condition and repeated in three independent experiments. Error bars represent SD. *, P<0.05 vs control; **, P<0.001 vs. control by Student's test.

[4] = Cytotoxicity on the MCF-7 cell line; type: cell-based; details: human, MCF-7 cells; incubation time 3 days; 1 nM-100 μM
Experimental: (§2) FIG. 9A—is an illustration of the cytotoxicity of the INH7-464 inhibitor on the MCF-7 cell line. FIG. 9B—is an illustration of the cytotoxicity of the INH7-464 inhibitor on the MCF-10A cell line. Paclitaxel (PTX) was used as the reference compound and was dissolved in DMSO for the stock solutions. The stock solutions were subsequently diluted at multiple concentrations with culture media in order to obtain the final desired concentrations ranging between 1 nM-100 μM. The incubation time was 3 days. The IC50 values (at which 50% of cell growth inhibition—concentration that inhibits 50% of cell proliferation—is observed) were calculated using an iterative least square regression method (cf. Table 3). The cytotoxicity values for the INH7-464 inhibitor were lower than those for Paclitaxel (PTX) in the different cell lines (cf. Table 3).
(§3) Paclitaxel (PTX) was used as a reference compound and was dissolved in DMSO for the stock solutions. The stock solutions were subsequently diluted at multiple concentrations with culture media in order to obtain the final desired concentrations ranging from 1 nM-100 μM. The incubation time was 3 days. The IC50 values (at which 50% of cell growth inhibition—concentration that inhibits 50% of cell proliferation—is observed) were calculated using an iterative least square regression method.

[5] = Cytotoxicity on the MCF-10A cell line; type: cell-based; details: human, MCF-10A cells; incubation time 3 days; 1 nM-100 μM
Experimental: as §2, §3

[6] = Toxicity of INH7-464 in mice, weekly s.c. injection over 21 days; type: in vivo
Experimental: FIG. 10—is an illustration of the toxicity of the INH7-464 inhibitor in mice (8 mice/group) at various concentrations over a period of 21 days. Control Group: 0.4% methylcellulose/DMSO (92/8). INH7-464 group: Day 1: 20 mg/kg (INH7-464); Day 8: 30 mg/kg (INH7-464); Day 15: 60 mg/kg (INH7-464). […] Statistical significance by T-test is shown by ***P<0.001.
FIG. 11—is an illustration of the effect (toxicity) of the INH7-464 inhibitor on the liver, kidney, ovary and uterus weight, as per the toxicity experiment illustrated in FIG. 10.
INH7-464 was administered by s.c. injection. INH7-464 was first dissolved in DMSO, followed by the addition of 0.4% methylcellulose to obtain a final 8% concentration of co-solvent (methylcellulose/DMSO (92/8). The injected volume was 0.1 mL (s.c.). […] All the mice were weighed every day. The liver, kidney, ovaries, and uterus were collected and weighed following 3 weeks of treatment.

[7] = Body weight of nude mice during treatment of MCF-7 and T47D tumors; type: in vivo; details: MCF-7 and T47D tumor-bearing nude mice; 22 days; 5 mg/kg/day
Description: FIG. 6A—is an illustration of the body weight of the nude mice following treatment of human MCF-7 and T47D breast tumors with INH7-47 over a period of 22 days. […] (FIG. 6B) is an illustration of the body weight of the OVX nude mice (mice having undergone an ovariectomy) over a period of 22 days. The OVX mice were not treated with an INH7 inhibitor, but instead were subjected to daily subcutaneous (s.c.) injection with vehicle (0.4% methylcellulose/DMSO (92/8)).
as §1

SMILES: C[C@]12CC[C@@H]3c4ccc(O)cc4CC[C@H]3[C@@H]1CCC2=O [E1, Estrone]
- growth of human MCF-7 breast tumors, % of initial growth ([1]; day 0): 100%
- growth of human MCF-7 breast tumors, % of initial growth ([1]; day 5): 102.886%
- growth of human MCF-7 breast tumors, % of initial growth ([1]; day 9): 100.227%
- growth of human MCF-7 breast tumors, % of initial growth ([1]; day 12): 109.033%
- growth of human MCF-7 breast tumors, % of initial growth ([1]; day 13): 95.3089%
- growth of human MCF-7 breast tumors, % of initial growth ([1]; day 19): 100.249%
- growth of human MCF-7 breast tumors, % of initial growth ([1]; day 22): 102.648%
- growth of human T47D breast tumors, % of initial growth ([2]; day 0): 100%
- growth of human T47D breast tumors, % of initial growth ([2]; day 5): 93.64%
- growth of human T47D breast tumors, % of initial growth ([2]; day 9): 113.43%
- growth of human T47D breast tumors, % of initial growth ([2]; day 12): 112.0519%
- growth of human T47D breast tumors, % of initial growth ([2]; day 15): 122.0034%
- growth of human T47D breast tumors, % of initial growth ([2]; day 19): 112.9356%
- growth of human T47D breast tumors, % of initial growth ([2]; day 22): 112.831%

SMILES: C[C@]12CC[C@@H]3c4ccc(O)cc4CC[C@H]3[C@@H]1CC[C@@H]2O [E2, Estradiol]
- growth of human MCF-7 breast tumors, % of initial growth ([1]; day 0): 100%
- growth of human MCF-7 breast tumors, % of initial growth ([1]; day 5): 82.8535%
- growth of human MCF-7 breast tumors, % of initial growth ([1]; day 9): 97.2662%
- growth of human MCF-7 breast tumors, % of initial growth ([1]; day 12): 131.541%
- growth of human MCF-7 breast tumors, % of initial growth ([1]; day 13): 123.252%
- growth of human MCF-7 breast tumors, % of initial growth ([1]; day 19): 108.413%
- growth of human MCF-7 breast tumors, % of initial growth ([1]; day 22): 120.974%
- growth of human T47D breast tumors, % of initial growth ([2]; day 0): 100%
- growth of human T47D breast tumors, % of initial growth ([2]; day 5): 112.55%
- growth of human T47D breast tumors, % of initial growth ([2]; day 9): 120.84%
- growth of human T47D breast tumors, % of initial growth ([2]; day 12): 121.306%
- growth of human T47D breast tumors, % of initial growth ([2]; day 15): 150.417%
- growth of human T47D breast tumors, % of initial growth ([2]; day 19): 144.117%
- growth of human T47D breast tumors, % of initial growth ([2]; day 22): 138.919%

SMILES: CCCCCCCCCN1C[C@]2(CC[C@H]3[C@@H]4CC[C@H]5NC(=O)CC[C@]5(C)[C@H]4CC[C@@]32C)OC1=O [INH7-464, (4aR,4bS,6aS,7R,9aS,9bR,11aR)-4a,6a-dimethyl-3′-nonyltetradecahydrospiro [indeno[5,4-f]quinoline-7,5′-oxazolidine]-2,2′(1H)-dione]
- inhibition of MCF-7 cell proliferation (% of DNA synthesis vs control 0.1 nM E1) [3]: significant inhibition at 2 μM
- decrease in the tumor size relative to the control (E1) ([1]; MCF-7 xenograft model, day 22, 5 mg/kg/day): 60%±5%
- growth of human MCF-7 breast tumors, % of initial growth ([1]; day 0): 100%
- growth of human MCF-7 breast tumors, % of initial growth ([1]; day 5): 88.1406%
- growth of human MCF-7 breast tumors, % of initial growth ([1]; day 9): 81.8741%
- growth of human MCF-7 breast tumors, % of initial growth ([1]; day 12): 84.2617%
- growth of human MCF-7 breast tumors, % of initial growth ([1]; day 13): 66.5956%
- growth of human MCF-7 breast tumors, % of initial growth ([1]; day 19): 67.8843%
- growth of human MCF-7 breast tumors, % of initial growth ([1]; day 22): 59.6876%
- decrease in the tumor size relative to the control (E1) ([2]; T47D xenograft model, day 22, 5 mg/kg/day): 51%±5%
- growth of human T47D breast tumors, % of initial growth ([2]; day 0): 100%
- growth of human T47D breast tumors, % of initial growth ([2]; day 5): 100.51%
- growth of human T47D breast tumors, % of initial growth ([2]; day 9): 78.1158%
- growth of human T47D breast tumors, % of initial growth ([2]; day 12): 76.9139%
- growth of human T47D breast tumors, % of initial growth ([2]; day 15): 63.5165%
- growth of human T47D breast tumors, % of initial growth ([2]; day 19): 67.9195%
- growth of human T47D breast tumors, % of initial growth ([2]; day 22): 50.9558%
- IC50 at 3 days [4]: 582 nM
- IC50 at 3 days [5]: 2670 nM
- tolerability after weekly subcutaneous injection ([6]; 8/group, 20-60 mg/kg weekly s.c. for 3 weeks (21 days)): very well tolerated
- apparent toxicity ([6]; 20-60 mg/kg weekly (s.c.)): no apparent toxicity
- weight changes of liver, kidney, ovary and uterus ([6]; after 3 weeks of weekly s.c. 20, 30 and 60 mg/kg): no significant weight changes
- body weight of the nude mice [7]: absence of weight loss

SMILES: CC(=O)O[C@H]1C(=O)[C@@]2(C)[C@H]([C@H](OC(=O)c3ccccc3)[C@]3(O)C[C@H](OC(=O)[C@H](O)[C@@H](NC(=O)c4ccccc4)c4ccccc4)C(C)=C1C3(C)C)[C@]1(OC(C)=O)CO[C@@H]1C[C@@H]2O [Paclitaxel (PTX), Paclitaxel]
- IC50 at 3 days [4]: 3.08 nM
- IC50 at 3 days [5]: 0.637 nM
